Measurements: PMC12518634, “The noncanonical function of liver-type phosphofructokinase potentiates the efficacy of HDAC inhibitors in cancer” (Signal Transduction and Targeted Therapy, 2025)
Structures can show the parent of a compound that is named as a salt. Where two headings read alike, the source gives them in different places.

Experiments:
783C-6 = assay: High-throughput drug screen, CellTiter-Glo viability, 72 h; assay type: cell-based, human; set-up: AUC: scale not given here; conditions: for AUC: area under the dose-response curve; for EC50: CellTiter-Glo viability, 72 h, read-out: EC50
Outline: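 Cholangiocarcinoma cells were seeded at 3000/well in 384-well plates and dosed after 24 h. Drugs were tested at 10, 1, 0.1, 0.01 and 0.001 μM in duplicate for 72 h, with viability read by CellTiter-Glo luminescence.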

1405R3 = assay: as above; assay type: cell-based, human; set-up: AUC: scale not given here; conditions: 1405R3 DSRT analysis; for AUC: area under the dose-response curve; for MIN: lower asymptote of fitted dose-response curve; for SLOPE: slope of fitted dose-response curve; for EC50: fitted dose-response curve, Min.Conc.tested 1, Max.Conc.tested 10000, CellTiter-Glo, 72 h, read-out: EC50
Outline: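 Responses are drug sensitivity scores (efficacy cutoff ≥10), fitted from CellTiter-Glo luminescence. Each drug was given at five concentrations (10 to 0.001 μM, tenfold steps) in duplicate for 72 h. Cells were plated at 3000/well 24 h before dosing.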

[1] = 783C-6 cells, DSS of DSRT analysis
[2] = 783C-6 cells, minimum of dose-response curve
[3] = 783C-6 cells, slope of fitted dose-response curve
[4] = 783C-6 DSRT analysis, fitted dose-response curve, Min.Conc.tested 1, Max.Conc.tested 10000
[5] = 783C-6 DSRT analysis, DSS calculated from the dose-response curve
[6] = 783C-6 DSRT analysis, MIN of the fitted dose-response curve
[7] = 783C-6 DSRT analysis, slope of the fitted dose-response curve

COc1cc2c(NC3CCN(C(C)C)CC3)nc(N3CCC(F)(F)CC3)nc2cc1OCCCN1CCCC1 [UNC0642]
DSS (783C-6; [1]): 0 | AUC (783C-6; 783C-6 cells): 7.2 | MIN (783C-6; [2]): 94 | AUC (1405R3): 0.1 | DSS (1405R3; drug sensitivity score): 0 | MIN (1405R3): 99.3

CCCC(CCC)C(=O)O [Valproic acid sodium salt]
DSS (783C-6; [1]): 0 | AUC (783C-6; 783C-6 cells): 4.4 | MIN (783C-6; [2]): 85.4 | AUC (1405R3): 8.4 | DSS (1405R3; drug sensitivity score): 0 | MIN (1405R3): 92.2

CCCC(CCC)C(=O)O [Valproic acid]
DSS (783C-6; [1]): 0 | AUC (783C-6; 783C-6 cells): 4.4 | MIN (783C-6; [2]): 85.5 | AUC (1405R3): 18.4 | DSS (1405R3; drug sensitivity score): 0 | MIN (1405R3): 88.1

C[C@@H]1COC(Nc2ccc3ncnc(Nc4ccc(OCc5nccs5)c(Cl)c4)c3c2)=N1 [Varlitinib]
DSS (783C-6; [1]): 1.5 | AUC (783C-6; 783C-6 cells): 22.8 | MIN (783C-6; [2]): 79.7 | AUC (1405R3): 11.5 | DSS (1405R3; drug sensitivity score): 0 | MIN (1405R3): 91.8

O=C(NNS(=O)(=O)c1ccccc1F)c1cc(F)cc(-c2ccccn2)c1 [WM-1119]
DSS (783C-6; [1]): 0 | AUC (783C-6; 783C-6 cells): 7.3 | MIN (783C-6; [2]): 75.9 | AUC (1405R3): 51.4 | DSS (1405R3; drug sensitivity score): 0 | MIN (1405R3): 66.9

Cc1cc(-c2ccccc2)cc(C(=O)NNS(=O)(=O)c2cccc(O)c2)c1F [WM-3835]
DSS (783C-6; [1]): 0 | AUC (783C-6; 783C-6 cells): 15.7 | MIN (783C-6; [2]): 93.1 | AUC (1405R3): 14.5 | DSS (1405R3; drug sensitivity score): 0 | MIN (1405R3): 90.6

Cc1cc(-c2ccccc2)cc(C(=O)NNS(=O)(=O)c2ccccc2)c1F [WM-8014]
DSS (783C-6; [1]): 0 | AUC (783C-6; 783C-6 cells): 5.5 | MIN (783C-6; [2]): 81.8 | SLOPE (783C-6; [3]): -1 | AUC (1405R3): 16.3 | DSS (1405R3; drug sensitivity score): 0 | MIN (1405R3): 89.5 | SLOPE (1405R3): -0.1

(-)-Parthenolide
EC50 (783C-6; [4]): 1460 nM | DSS (783C-6; [5]): 2.7 | MIN (783C-6; [6]): 68.4 | AUC (783C-6; 783C-6 DSRT analysis): 26.5 | SLOPE (783C-6; [7]): -2.5 | DSS (1405R3; DSS): 3.6 | AUC (1405R3): 33.7 | EC50 (1405R3): 3140 nM | MIN (1405R3): 34.2 | SLOPE (1405R3): -2.5

AR-42
EC50 (783C-6; [4]): 1080 nM | DSS (783C-6; [5]): 10.5 | MIN (783C-6; [6]): 2.3 | AUC (783C-6; 783C-6 DSRT analysis): 96.3 | SLOPE (783C-6; [7]): -1.3 | DSS (1405R3; DSS): 11 | AUC (1405R3): 98.5 | EC50 (1405R3): 1030 nM | MIN (1405R3): 1.2 | SLOPE (1405R3): -1.5

AZD4547
EC50 (783C-6; [4]): 2230 nM | DSS (783C-6; [5]): 3.2 | MIN (783C-6; [6]): 54.8 | AUC (783C-6; 783C-6 DSRT analysis): 29.6 | DSS (1405R3; DSS): 0 | AUC (1405R3): 4.8 | MIN (1405R3): 88.1

NKL 22
DSS (783C-6; [1]): 0 | AUC (783C-6; 783C-6 cells): 3.5 | MIN (783C-6; [2]): 92.5 | SLOPE (783C-6; [3]): -2.5 | AUC (1405R3): 6.3 | DSS (1405R3; drug sensitivity score): 0.2 | MIN (1405R3): 83.7 | SLOPE (1405R3): -2.5

OG-L002
DSS (783C-6; [1]): 0 | AUC (783C-6; 783C-6 cells): 3 | MIN (783C-6; [2]): 94.7 | SLOPE (783C-6; [3]): -0.5 | AUC (1405R3): 0.1 | DSS (1405R3; drug sensitivity score): 0 | MIN (1405R3): 100 | SLOPE (1405R3): -0.1

TC-H 106
EC50 (783C-6; 783C-6 cells, DSRT analysis, concentrations tested 1 to 10000 (unit inferred), GI50): 923 nM | DSS (783C-6; [1]): 5.3 | AUC (783C-6; 783C-6 cells): 61.5 | MIN (783C-6; [2]): 48.5 | SLOPE (783C-6; [3]): -0.6 | AUC (1405R3): 47 | DSS (1405R3; drug sensitivity score): 2.6 | MIN (1405R3): 75.6 | SLOPE (1405R3): -0.4
